According to the supplement of paper PMC10702517:
± gives the standard deviation.

Assay: chemical recovery from spiked human plasma; higher = better extraction
Conditions: pooled human plasma; extraction method: SPE only (HLB 96-well)
CC(=O)N1CCOCC1 [4-Acetylmorpholine] showed a chemical recovery of 3.35 ± 3.7%.
CCCCC(CC)COC(=O)CC(C(=O)OCC(CC)CCCC)S(=O)(=O)O (configuration not stated) [Dioctylsulfosuccinate] gave a chemical recovery of 26.5 ± 1.6%.
COCCc1ccc(OCC(O)CNC(C)C)cc1 (configuration not stated) [Metoprolol] showed a chemical recovery of 36.2 ± 2.6%.
NS(=O)(=O)C(F)(F)C(F)(F)C(F)(F)C(F)(F)C(F)(F)C(F)(F)C(F)(F)C(F)(F)F [Perfluorooctanesulfonamide] gave a chemical recovery of 32 ± 4.9%.
Compound CCCCCCCCCCCCCCCC[N+](C)(C)C [Hexadecyltrimethylammonium] has a chemical recovery of 50.1 ± 19%.
Oc1ccc(Cc2ccc(O)cc2)cc1 [Bisphenol-F] gave a chemical recovery of 56 ± 2.6%.
Work on CC(C)(C)c1ccc2oc(-c3ccc(-c4nc5cc(C(C)(C)C)ccc5o4)s3)nc2c1 [Fluorescent-Brightener-184] yielded a chemical recovery of 0.938 ± 0.39%.
Compound CCCCCCCC[N+](C)(C)C [Trimethyloctylammonium] has a chemical recovery of 35 ± 2.5%.
Compound COc1cc(-c2ccc(N)c(OC)c2)ccc1N [o-Dianisidine] has a chemical recovery of 15.5 ± 3%.
Work on CCCCCCCCCC(=O)N(C)C [N,N-Dimethyldecan-1-amide] yielded a chemical recovery of 13.6 ± 0.95%.
For CCCCOP(=O)(O)OCCCC [Di-n-butyl-phosphate], the chemical recovery was 40.5 ± 3.9%.
N#CSCSc1nc2ccccc2s1 [2-(Thiocyanomethylthio)benzothiazole] showed a chemical recovery of 44.1 ± 2.3%.
Oc1c(Cl)cc(Cl)c2cccnc12 [5,7-Dichloro-8-hydroxyquinoline] showed a chemical recovery of 21.3 ± 1.8%.

Same assay, conditions: pooled human plasma; extraction method: SPE only (HLB 96-well), PES comparison experiment
Cn1sc(Cl)cc1=O [Methylchloroisothiazolinone] showed a chemical recovery of 0.321 ± 0.64%.
Compound Cc1nccn1CC1CCc2c(c3ccccc3n2C)C1=O (configuration not stated) [Ondansetron] has a chemical recovery of 45.7 ± 7.4%.
CCN(CCO)CCCC(C)Nc1ccnc2cc(Cl)ccc12 (configuration not stated) [Hydroxychloroquine] gave a chemical recovery of 9.45 ± 7.5%.
Clc1ccccc1C(c1ccccc1)(c1ccccc1)n1ccnc1 [Clotrimazole] gave a chemical recovery of 56.3 ± 11%.
For Nc1cccc2cc(S(=O)(=O)O)ccc12 [5-Aminonaphthalene-2-sulfonic acid], the chemical recovery was 18.3 ± 2.4%.
N=C(Nc1ccccc1)Nc1ccccc1 [1,3-Diphenylguanidine] showed a chemical recovery of 48.7 ± 4.8%.
With CCC(C(N)=O)(C(N)=O)c1ccccc1 [Phenylethylmalonamide] the chemical recovery was 60.3 ± 8.1%.
For O=C(NC(=O)c1c(F)cccc1F)Nc1ccc(Oc2ccc(C(F)(F)F)cc2Cl)cc1F [Flufenoxuron], the chemical recovery was 24 ± 6.8%.
Compound Oc1cccc2n[nH]nc12 [4-Hydroxybenzotriazole] has a chemical recovery of 48 ± 8.1%.
In the case of CNC(=O)ON=C(C)C(C)SC (configuration not stated) [Butocarboxim], the chemical recovery is reported as 46.4 ± 8.7%.
Work on CC(=O)OCC(=O)[C@@]1(O)CC[C@H]2[C@@H]3CCC4=CC(=O)CC[C@]4(C)[C@H]3[C@@H](O)C[C@@]21C [Hydrocortisonacetate] yielded a chemical recovery of 47.4 ± 6.2%.
CNC(=O)Oc1cc(C)c(SC)c(C)c1 [Methiocarb] showed a chemical recovery of 0.163 ± 0.33%.
In the case of CCCCC(CC)COP(=O)(OCC(CC)CCCC)OCC(CC)CCCC (configuration not stated) [Tris(2-ethylhexl)phosphate], the chemical recovery is reported as 4.16 ± 1.6%.
CC1CCN(CCCC(=O)c2ccc(F)cc2)CC1 [Melperon] showed a chemical recovery of 48.8 ± 6.8%.
Work on CCCN(CCC)C(=O)SCc1ccccc1 [Prosulfocarb] yielded a chemical recovery of 35.1 ± 6%.
In the case of COCCc1ccc(OCC(O)CNC(C)C)cc1 (configuration not stated) [Metoprolol], the chemical recovery is reported as 44 ± 5.4%.
Work on NS(=O)(=O)C(F)(F)C(F)(F)C(F)(F)C(F)(F)C(F)(F)C(F)(F)C(F)(F)C(F)(F)F [Perfluorooctanesulfonamide] yielded a chemical recovery of 38.8 ± 9.3%.
Compound CCCCCCCC[N+](C)(C)C [Trimethyloctylammonium] has a chemical recovery of 45.7 ± 6.1%.
O=C(O)Cc1ccc(S(=O)(=O)O)cc1 [(4-Sulfophenyl)acetic acid] gave a chemical recovery of 6.28 ± 4%.

Same assay, conditions: pooled human plasma; extraction method: solvent precipitation (ACN + hexane)
For CNC(=O)c1cc(Cl)cc(C)c1NC(=O)c1cc(Br)nn1-c1ncccc1Cl [Chlorantraniliprole], the chemical recovery was 75.5 ± 1.2%.
Compound Cc1cc(C(C)(C)c2ccc(O)c(C)c2)ccc1O [Bisphenol-C] has a chemical recovery of 39.4 ± 2.5%.
CC(=O)Nc1ccccc1 [Acetanilide] showed a chemical recovery of 80.1 ± 3.5%.
Work on NC(=O)N1c2ccccc2CC(=O)c2ccccc21 [Oxcarbazepine] yielded a chemical recovery of 0.126 ± 0.22%.
Work on Cn1sc(Cl)cc1=O [Methylchloroisothiazolinone] yielded a chemical recovery of 0.0132 ± 0.023%.
Cc1nccn1CC1CCc2c(c3ccccc3n2C)C1=O (configuration not stated) [Ondansetron] showed a chemical recovery of 73.2 ± 2.9%.
CN(C1CCCCC1)C1CCCCC1 [N-Methyl-dicyclohexylamine] gave a chemical recovery of 50.9 ± 7.1%.
In the case of CCN(CCO)c1ccc(/N=N/c2sc3cc(OC)ccc3[n+]2C)cc1 [Basic-Blue-41], the chemical recovery is reported as 18.5 ± 1.6%.
For Oc1ccc(C(c2ccccc2)(c2ccccc2)c2ccc(O)cc2)cc1 [Bisphenol-BP], the chemical recovery was 35.1 ± 3.6%.
Work on C[C@H](CCC(=O)O)[C@H]1CC[C@H]2[C@@H]3CC[C@@H]4C[C@H](O)CC[C@]4(C)[C@H]3C[C@H](O)[C@]12C [Deoxycholic-acid] yielded a chemical recovery of 75.8 ± 6.6%.
Compound Nc1cccc2cc(S(=O)(=O)O)ccc12 [5-Aminonaphthalene-2-sulfonic acid] has a chemical recovery of 65 ± 2.7%.
For CC(Cc1ccc(C(C)(C)C(=O)O)cc1)CN1C[C@@H](C)O[C@@H](C)C1 (some centres not stated) [Fenpropimorph-acid], the chemical recovery was 67.5 ± 3.3%.
In the case of N=C(Nc1ccccc1)Nc1ccccc1 [1,3-Diphenylguanidine], the chemical recovery is reported as 59.5 ± 2.6%.
Cc1cc(O)cc(C)c1[S+](C)[O-] (configuration not stated) [Methiocarb-sulfoxide-phenol] gave a chemical recovery of 73.1 ± 4.4%.
With OC(Cn1cncn1)(c1ccc(F)cc1)c1ccccc1F (configuration not stated) [Flutriafol] the chemical recovery was 78.9 ± 4%.
In the case of O=C1Cc2ccccc2N1 [2-Oxindole], the chemical recovery is reported as 39.1 ± 5.5%.
In the case of COc1cnc(OC)n2nc(NS(=O)(=O)c3c(OCC(F)F)cccc3C(F)(F)F)nc12 [Penoxsulam], the chemical recovery is reported as 78.9 ± 3.6%.
Work on Oc1cccc2n[nH]nc12 [4-Hydroxybenzotriazole] yielded a chemical recovery of 3.14 ± 2.8%.
Compound Cc1ccccc1NC(=N)Nc1ccccc1C [1,3-Di-o-tolylguanidine] has a chemical recovery of 64.5 ± 1.7%.
For CN(C)C(=O)Nc1ccc(Cl)cc1 [Monuron], the chemical recovery was 74.2 ± 1.8%.
O=C(O)c1ccccc1C(=O)OCc1ccccc1 [Monobenzyl-phthalate] showed a chemical recovery of 65.3 ± 7.2%.
CC(C)NCC(O)COc1ccc(CC(=O)O)cc1 (configuration not stated) [Metoprolol acid] showed a chemical recovery of 54.1 ± 9.1%.
Compound CCCN(CCOc1c(Cl)cc(Cl)cc1Cl)C(=O)NC=O [Prochloraz BTS445-96] has a chemical recovery of 71.33 ± 0.59%.
Work on CC1(C)CC(NC(=O)c2cccc(C(=O)NC3CC(C)(C)NC(C)(C)C3)c2)CC(C)(C)N1 [Nylostab-S-EED] yielded a chemical recovery of 70.4 ± 5.2%.
CNCC[C@H](Oc1cccc2ccccc12)c1cccs1 [Duloxetine] gave a chemical recovery of 59.7 ± 5.1%.
Work on O=C1C=C(N(Cc2ccc(Cl)nc2)CC(F)F)CO1 [Flupyradifurone] yielded a chemical recovery of 76.9 ± 2.6%.
Work on O=P(O)(O)C(F)(F)C(F)(F)C(F)(F)C(F)(F)C(F)(F)C(F)(F)F [Perfluorohexylphosphonic-acid] yielded a chemical recovery of 26.7 ± 9.3%.
Compound C[C@@]12CCC[C@H]1[C@@H]1CC[C@H]3C[C@@H](O)CC[C@]3(C)[C@H]1CC2 [Androstanol] has a chemical recovery of 44.7 ± 6%.
CN(C)C(=O)NC1CCCCC1 [3-Cyclohexyl-1,1-dimethylurea] showed a chemical recovery of 61.2 ± 1.1%.
For O=S1OC[C@@H]2[C@H](CO1)[C@@]1(Cl)C(Cl)=C(Cl)[C@]2(Cl)C1(Cl)Cl (stereo partly drawn) [alpha-Endosulfan], the chemical recovery was 13.6 ± 2.6%.
Work on O=C(Nc1ccccc1)Nc1ccccc1 [1,3-Diphenylurea] yielded a chemical recovery of 84.4 ± 7.3%.
Work on CCCCC(CC)COP(=O)(OCC(CC)CCCC)OCC(CC)CCCC (configuration not stated) [Tris(2-ethylhexl)phosphate] yielded a chemical recovery of 107 ± 4.1%.
For CC(C)[C@H](C(=O)O[C@H](C#N)c1cccc(Oc2ccccc2)c1)c1ccc(Cl)cc1 [Esfenvalerate], the chemical recovery was 118 ± 16%.
CC1CCN(CCCC(=O)c2ccc(F)cc2)CC1 [Melperon] showed a chemical recovery of 61 ± 4.4%.
Cn1cnc2c1c(=O)n(CCCC(=O)O)c(=O)n2C [1-(3-carboxypropyl)-3,7-dimethylxanthine] gave a chemical recovery of 59.8 ± 6.9%.
Compound CCCN(CCC)C(=O)SCc1ccccc1 [Prosulfocarb] has a chemical recovery of 72.6 ± 6.4%.
Compound CC1(C(=O)Nc2ccc(O)c(Cl)c2Cl)CCCCC1 [Fenhexamid] has a chemical recovery of 66.2 ± 1.5%.
Compound CC(=O)c1cc(C(C)(C)C)c(O)c(C(C)(C)C)c1 [3,5-Di-tert-butyl-4'-hydroxyacetophenone] has a chemical recovery of 42.1 ± 2.7%.
COCCc1ccc(OCC(O)CNC(C)C)cc1 (configuration not stated) [Metoprolol] gave a chemical recovery of 75.2 ± 2.3%.
Oc1ccc(Cc2ccc(O)cc2)cc1 [Bisphenol-F] showed a chemical recovery of 72.6 ± 3.6%.
Compound CCCCCCCC[N+](C)(C)C [Trimethyloctylammonium] has a chemical recovery of 72.1 ± 3%.
Compound COc1cc(-c2ccc(N)c(OC)c2)ccc1N [o-Dianisidine] has a chemical recovery of 46.7 ± 7.3%.
N#CSCSc1nc2ccccc2s1 [2-(Thiocyanomethylthio)benzothiazole] gave a chemical recovery of 18.4 ± 10%.
CCCCCCCCCC[N+](C)(C)Cc1ccccc1 [Benzyldimethyldecylammonium] showed a chemical recovery of 66.1 ± 3.3%.
In the case of Clc1nc2ccccc2s1, the chemical recovery is reported as 5.44 ± 5.7%.
